Laboratory results: ChEMBL document CHEMBL3044779, “The action of herbicides on fatty acid biosynthesis and elongation in barley and cucumber” (Pest Manag Sci, 2010)
Calls of active or inactive are those of the source. No cut-off for these calls is given here.

How the values were obtained:
Hordeum vulgare [1] = test: Inhibition of fatty acid synthesis in Hordeum vulgare (barley) using [14C]malonate assessed as [14C]-labeled 22C fatty acid level at 70 uM after 3 hr by liquid scintillation counting (reference value: 34.7 +/- 2.4%); assay type: functional; set-up: scale not given: the % may be the effect or the level left
Cucumis sativus [2] = test: Inhibition of fatty acid synthesis in Cucumis sativus (cucumber) using [14C]malonate assessed as reduction in [14C]-labeled 22C fatty acid level at 70 uM after 3 hr by liquid scintillation counting relative to control; assay type: functional, organism-based
Cucumis sativus [3] = test: Inhibition of fatty acid synthesis in Cucumis sativus (cucumber) using [14C]malonate assessed as [14C]-labeled 18C fatty acid level at 70 uM after 3 hr by liquid scintillation counting (reference value: 14.3 +/- 2%); assay type: functional; set-up: scale not given: the % may be the effect or the level left
Hordeum vulgare [4] = test: Inhibition of fatty acid synthesis in Hordeum vulgare (barley) using [14C]malonate assessed as [14C]-labeled 18C fatty acid level at 70 uM after 3 hr by liquid scintillation counting (reference value: 14.4 +/- 6.3%); assay type: functional; set-up: scale not given: the % may be the effect or the level left
Hordeum vulgare [5] = test: Inhibition of fatty acid synthesis in Hordeum vulgare (barley) using [14C]malonate assessed as reduction in [14C]-labeled 26C fatty acid level at 70 uM after 3 hr by liquid scintillation counting relative to control; assay type: functional, organism-based
Hordeum vulgare [6] = test: Inhibition of fatty acid synthesis in Hordeum vulgare (barley) using [14C]acetate assessed as [14C]-labeled 16C fatty acid level at 7 uM after 3 hr by liquid scintillation counting (reference value: 30.6 +/- 0.2%); assay type: functional; set-up: scale not given: the % may be the effect or the level left
Cucumis sativus [7] = test: Inhibition of fatty acid synthesis in Cucumis sativus (cucumber) using [14C]malonate assessed as [14C]-labeled 20C fatty acid level at 70 uM after 3 hr by liquid scintillation counting (reference value: 11.7 +/- 2%); assay type: functional; set-up: scale not given: the % may be the effect or the level left
Cucumis sativus [8] = test: Inhibition of fatty acid synthesis in Cucumis sativus (cucumber) using [14C]malonate assessed as reduction in [14C]-labeled 24C fatty acid level at 70 uM after 3 hr by liquid scintillation counting relative to control; assay type: functional, organism-based
Cucumis sativus [9] = test: Inhibition of fatty acid synthesis in Cucumis sativus (cucumber) using [14C]acetate assessed as [14C]-labeled 16C fatty acid level at 7 uM after 3 hr by liquid scintillation counting (reference value: 27.6 +/- 5.1%); assay type: functional; set-up: scale not given: the % may be the effect or the level left
Hordeum vulgare [10] = test: Inhibition of fatty acid synthesis in Hordeum vulgare (barley) using [14C]acetate assessed as reduction in [14C]-labeled 24C fatty acid level at 7 uM after 3 hr by liquid scintillation counting; assay type: functional, organism-based
Hordeum vulgare [11] = test: Inhibition of fatty acid synthesis in Hordeum vulgare (barley) using [14C]malonate assessed as reduction in [14C]-labeled 20C fatty acid level at 70 uM after 3 hr by liquid scintillation counting relative to control; assay type: functional, organism-based
Hordeum vulgare [12] = test: Inhibition of fatty acid synthesis in Hordeum vulgare (barley) assessed as inhibition of [14C]malonate incoporation in total fatty acids at 70 uM measured as total disintegration per g of fresh weight after 3 hr by liquid scintillation counting (reference value: 5.2 +/- 0.9 dpm x 10^6 g'1 fresh wt); assay type: functional
Hordeum vulgare [13] = test: Inhibition of fatty acid synthesis in Hordeum vulgare (barley) using [14C]acetate assessed as reduction in [14C]-labeled 22C fatty acid level at 7 uM after 3 hr by liquid scintillation counting; assay type: functional, organism-based
Cucumis sativus [14] = test: (§1) Inhibition of fatty acid synthesis in Cucumis sativus (cucumber) assessed as inhibition of [14C]acetate incoporation in total fatty acids at 7 uM measured as total disintegration per g of fresh weight after 3 hr by liquid scintillation counting (reference value: 4.4 +/- 1 dpm x 10^6 g'1 fresh wt); assay type: functional
Cucumis sativus [15] = test: Inhibition of fatty acid synthesis in Cucumis sativus (cucumber) using [14C]acetate assessed as [14C]-labeled 18C fatty acid level at 7 uM after 3 hr by liquid scintillation counting (reference value: 33.5 +/- 1.5%); assay type: functional; set-up: scale not given: the % may be the effect or the level left
Hordeum vulgare [16] = test: Inhibition of fatty acid synthesis in Hordeum vulgare (barley) using [14C]acetate assessed as [14C]-labeled 20C fatty acid level at 7 uM after 3 hr by liquid scintillation counting (reference value: 2.1 +/- 0.4%); assay type: functional; set-up: scale not given: the % may be the effect or the level left
Cucumis sativus [17] = test: Inhibition of fatty acid synthesis in […] using [14C]acetate assessed as reduction in [14C]-labeled 22C fatty acid level at 7 uM after 3 hr by liquid scintillation counting; assay type: functional, organism-based
Cucumis sativus [18] = test: Inhibition of fatty acid synthesis in Cucumis sativus (cucumber) using [14C]acetate assessed as reduction in [14C]-labeled 20C fatty acid level at 7 uM after 3 hr by liquid scintillation counting relative to control; assay type: functional, organism-based
Hordeum vulgare [19] = test: Inhibition of fatty acid synthesis in Hordeum vulgare (barley) using [14C]malonate assessed as reduction in [14C]-labeled 24C fatty acid level at 70 uM after 3 hr by liquid scintillation counting relative to control; assay type: functional, organism-based
Cucumis sativus [20] = test: as §1, with “of [14C]malonate” for “of [14C]acetate”, “at 70” for “at 7”, “value: 16.3” for “value: 4.4”, “+/- 1.1” for “+/- 1”; assay type: functional
Hordeum vulgare [21] = test: Inhibition of fatty acid synthesis in Hordeum vulgare (barley) assessed as inhibition of [14C]acetate incoporation in total fatty acids at 7 uM measured as total disintegration per g of fresh weight after 3 hr by liquid scintillation counting (reference value: 5.8 +/- 1.6 dpm x 10^6 g'1 fresh wt); assay type: functional
Hordeum vulgare [22] = test: Inhibition of fatty acid synthesis in Hordeum vulgare (barley) using [14C]malonate assessed as [14C]-labeled 16C fatty acid level at 70 uM after 3 hr by liquid scintillation counting (reference value: 3.3 +/- 0.9%); assay type: functional; set-up: scale not given: the % may be the effect or the level left
Cucumis sativus [23] = test: Inhibition of fatty acid synthesis in Cucumis sativus (cucumber) using [14C]malonate assessed as [14C]-labeled 16C fatty acid level at 70 uM after 3 hr by liquid scintillation counting (reference value: 5.1 +/- 0.9%); assay type: functional; set-up: scale not given: the % may be the effect or the level left
Hordeum vulgare [24] = test: Inhibition of fatty acid synthesis in Hordeum vulgare (barley) using [14C]acetate assessed as [14C]-labeled 18C fatty acid level at 7 uM after 3 hr by liquid scintillation counting (reference value: 57 +/- 0.9%); assay type: functional; set-up: scale not given: the % may be the effect or the level left

`CCN(CC)C(=O)n1cnc(S(=O)(=O)c2c(C)cc(C)cc2C)n1` [CAFENSTROLE] was tested, and the Activity (Hordeum vulgare [1]) was 14.7%, the inhibition (Cucumis sativus [2]) was “Active” and the Activity (Cucumis sativus [3]) was 71.3%. The Activity (Hordeum vulgare [4]) was 65.4%, the inhibition (Hordeum vulgare [5]) was “Active” and the Activity (Hordeum vulgare [6]) was 32.4%. The Activity (Cucumis sativus [7]) was 8.4%, the inhibition (Cucumis sativus [8]) was “Active” and the Activity (Cucumis sativus [9]) was 60.4%. The inhibition (Hordeum vulgare [10]) was “Active”, the inhibition (Hordeum vulgare [11]) was “Active” and the Activity (Hordeum vulgare [12]) was 2.7 ×10⁶ dpm. The inhibition (Hordeum vulgare [13]) was “Active”, the Activity (Cucumis sativus [14]) was 2.5 ×10⁶ dpm and the Activity (Cucumis sativus [15]) was 39.6%. The Activity (Hordeum vulgare [16]) was 2.2%, the inhibition (Cucumis sativus [17]) was “Active” and the inhibition (Cucumis sativus [18]) was “Active”. For the same compound, the inhibition (Hordeum vulgare [19]) was “Active”, the Activity (Cucumis sativus [20]) was 9.4 ×10⁶ dpm and the Activity (Hordeum vulgare [21]) was 5.1 ×10⁶ dpm. The Activity (Hordeum vulgare [22]) was 10%, the Activity (Cucumis sativus [23]) was 20.4% and the Activity (Hordeum vulgare [24]) was 66.1%.
